Article PMC5454994, “Assembly of Hepatocyte Spheroids Using Magnetic 3D Cell Culture for CYP450 Inhibition/Induction” (International Journal of Molecular Sciences, 2017)

What was measured:
CYP2B6 = target: T1, CYP2B6 (Homo sapiens, UniProt P20813); conditions: CYP2B6 replicates, primary human hepatocytes, 72 h exposure
T1 sequence (P20813 1-491): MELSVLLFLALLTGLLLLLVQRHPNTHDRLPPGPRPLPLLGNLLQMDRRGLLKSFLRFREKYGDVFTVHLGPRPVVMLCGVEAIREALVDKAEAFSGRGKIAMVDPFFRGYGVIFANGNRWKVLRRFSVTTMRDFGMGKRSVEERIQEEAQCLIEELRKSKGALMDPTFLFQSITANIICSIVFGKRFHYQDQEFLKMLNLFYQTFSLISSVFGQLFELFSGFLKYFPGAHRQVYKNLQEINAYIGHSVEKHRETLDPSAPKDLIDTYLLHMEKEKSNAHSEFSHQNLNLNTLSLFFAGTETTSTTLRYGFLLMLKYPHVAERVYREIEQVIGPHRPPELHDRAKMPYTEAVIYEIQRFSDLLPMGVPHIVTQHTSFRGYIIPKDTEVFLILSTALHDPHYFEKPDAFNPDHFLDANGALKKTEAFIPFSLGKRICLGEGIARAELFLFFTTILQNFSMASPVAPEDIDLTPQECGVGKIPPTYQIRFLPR

CYP1A2 = target: T2, CYP1A2 (Homo sapiens, UniProt P05177); experiment: CYP1A2 activity (P450-Glo, Luciferin-1A2) in primary human hepatocyte spheroids and monolayers after 72 h drug exposure; format: in vitro ADME; conditions: primary human hepatocytes, 72 h exposure
T2 sequence (P05177 1-516): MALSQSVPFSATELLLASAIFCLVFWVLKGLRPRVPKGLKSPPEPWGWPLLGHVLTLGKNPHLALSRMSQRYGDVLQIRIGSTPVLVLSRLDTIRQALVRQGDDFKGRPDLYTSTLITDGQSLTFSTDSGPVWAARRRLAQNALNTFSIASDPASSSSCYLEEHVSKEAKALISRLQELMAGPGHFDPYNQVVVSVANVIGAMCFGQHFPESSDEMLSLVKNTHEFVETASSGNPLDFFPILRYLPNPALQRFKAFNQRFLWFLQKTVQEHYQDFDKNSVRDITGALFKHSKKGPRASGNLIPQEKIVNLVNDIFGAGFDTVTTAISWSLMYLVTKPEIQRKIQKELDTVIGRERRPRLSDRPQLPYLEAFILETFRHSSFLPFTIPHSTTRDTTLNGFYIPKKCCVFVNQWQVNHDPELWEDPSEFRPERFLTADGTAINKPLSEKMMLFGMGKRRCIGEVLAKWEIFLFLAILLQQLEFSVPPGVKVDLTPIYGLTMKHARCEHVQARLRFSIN

SMILES | CYP2B6 activity in the presence of toxicity (CYP2B6) | CYP1A2 activity in the presence of toxicity (CYP1A2) | CYP1A2 induction, monolayers compared to spheroids (CYP1A2; normalized to control)
CO[C@H]1/C=C/O[C@@]2(C)Oc3c(C)c(O)c4c(O)c(c(/C=N/N5CCN(C)CC5)c(O)c4c3C2=O)NC(=O)/C(C)=C\C=C\[C@H](C)[C@H](O)[C@@H](C)[C@@H](O)[C@@H](C)[C@H](OC(C)=O)[C@@H]1C [rifampicin] | no observed decrease in CYP activity despite toxicity |  | 
COc1ccc2[nH]c([S+]([O-])Cc3ncc(C)c(OC)c3C)nc2c1 (stereo not drawn) [omeprazole] |  | no observed decrease in CYP activity despite toxicity | higher in monolayers compared to spheroids
